Reference: ChEMBL document CHEMBL1201862, “PubChem BioAssay data set” (2004)
Calls of active or inactive are those of the source.

Key:
[1] = HepG2 cell cytotoxicity, dose response, cytotoxicity control, luminescence, dry powder, set 9 (AID 743358); assay type: functional, cell-based
[2] = target: E3 ubiquitin-protein ligase Mdm2 (Homo sapiens, UniProt Q00987); test: enhancers of MDM2-luciferase reporter signal, concentration-effect titration, project on inhibitors of MDM2 ubiquitin ligase, cellular assay, luminescent readout, 384-well plate format (AID 1394); assay type: functional;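 note: MDM2 E3 inhibitors raise luminescence so EC50 is for signal enhancement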
[3] = Luminescence Cell-Based Dose Retest to Confirm Inhibitors of Cancer Stem Cells. [Related pubchem assays (depositor defined):AID2717, AID2721]; assay type: functional; conditions: Homo sapiens
[4] = PAX2 cell-based inhibition, dose response, selectivity assay for PAX8 inhibitor project, plate reader, dry powder samples (AID 743048); assay type: functional;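 note: HEK293 cells carrying a WT1 promoter luciferase reporter driven by expressed Pax2; potency is for inhibition of Pax2 driven reporter signal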
[5] = cytotoxicity in COV434 cells, dose response, cytotoxicity control for PAX8 inhibitor project, cell-based, plate reader, dry powder, SA7 (AID 743145); assay type: functional
[6] = cytotoxicity in OV-90 ovarian cancer cells, dose response, PAX8 inhibitor project, cell-based, plate reader, dry powder, SA8 (AID 743149); assay type: functional
[7] = IGROV1 ovarian cancer cell cytotoxicity, dose response, PAX8 inhibitor project, plate reader, dry powder samples (AID 743043); assay type: functional, cell-based; conditions: IGROV-1
Paired box protein Pax-8 = Paired box protein Pax-8 (Homo sapiens, UniProt Q06710); test: inhibitors of PAX8-driven TPO luciferase reporter, dose response, RMG-I cells, cherry-pick (AID 687027); assay type: functional, cell-based;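 note: luciferase reporter driven by Pax8 target thyroperoxidase promoter measured by SteadyGlo luminescence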
[8] = PAX5 activity inhibitors, dose response, selectivity assay for PAX8 inhibitor project, cell-based, plate reader, dry powder samples (AID 743047); assay type: functional;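 note: HEK293 cells carrying a Pax5 driven CD19 promoter luciferase reporter; potency of inhibitors that lower reporter luminescence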
[9] = cytotoxicity dependent on PAX8, dose response, cell-based, plate reader, dry powder (AID 743049); assay type: functional
[10] = target: Ubiquitin carboxyl-terminal hydrolase BAP1 (Homo sapiens, UniProt Q92560); test: BAP1 deubiquitinase inhibitors, dose response, biochemical (AID 714); assay type: functional
Ubiquitin carboxyl-terminal hydrolase BAP1, sequence (Q92560 whole entry): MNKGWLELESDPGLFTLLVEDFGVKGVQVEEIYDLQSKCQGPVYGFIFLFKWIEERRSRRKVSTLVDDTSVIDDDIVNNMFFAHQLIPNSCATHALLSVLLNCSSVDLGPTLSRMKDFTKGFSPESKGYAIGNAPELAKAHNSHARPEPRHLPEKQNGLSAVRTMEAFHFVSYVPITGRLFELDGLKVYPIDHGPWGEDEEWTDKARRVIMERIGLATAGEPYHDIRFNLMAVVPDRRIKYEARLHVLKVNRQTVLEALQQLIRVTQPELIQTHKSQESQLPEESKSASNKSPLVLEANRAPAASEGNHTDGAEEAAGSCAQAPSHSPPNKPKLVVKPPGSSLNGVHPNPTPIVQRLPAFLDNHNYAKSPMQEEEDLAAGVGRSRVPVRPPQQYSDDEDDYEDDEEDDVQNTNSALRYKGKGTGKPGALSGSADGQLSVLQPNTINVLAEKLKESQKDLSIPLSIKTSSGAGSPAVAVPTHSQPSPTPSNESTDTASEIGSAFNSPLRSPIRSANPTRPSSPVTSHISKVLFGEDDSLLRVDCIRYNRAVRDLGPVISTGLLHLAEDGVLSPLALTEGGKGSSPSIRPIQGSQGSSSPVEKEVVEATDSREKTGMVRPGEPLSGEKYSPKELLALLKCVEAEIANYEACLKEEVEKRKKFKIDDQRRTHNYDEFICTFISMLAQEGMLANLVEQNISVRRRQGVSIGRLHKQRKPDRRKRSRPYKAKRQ

[11] = Late stage results for the probe development effort to identify inhibitors of Plasmodium falciparum gametocytes: Luminescence-based cell-based high throughput dose response assay to identify inhibitors of viability of late stage Plasmodium falciparum gametocytes.; assay type: functional
[12] = target: RNA-editing ligase 1, mitochondrial (Trypanosoma brucei brucei, UniProt P86926); test: TbREL1 ligase inhibitors, dose response, biochemical, fluorescence, Trypanosoma brucei (AID 1117295); assay type: functional
[13] = HeLa 4N DNA content increase, dose response, cell-based, IC50 (AID 1117351); assay type: functional
[14] = cytotoxicity toward HCT116 cells – cell-based, CellTiter-Glo luminescence, IC50, dose response (AID 1117332); assay type: functional; conditions: HCT-116
[15] = target: Glucose-6-phosphate 1-dehydrogenase (Homo sapiens, UniProt P11413); test: human G6PD enzyme inhibitors, dose response, selectivity assay for P. falciparum G6PD inhibitor project, biochemical, fluorescence (AID 504792); assay type: functional
Glucose-6-phosphate 1-dehydrogenase, sequence (P11413 whole entry): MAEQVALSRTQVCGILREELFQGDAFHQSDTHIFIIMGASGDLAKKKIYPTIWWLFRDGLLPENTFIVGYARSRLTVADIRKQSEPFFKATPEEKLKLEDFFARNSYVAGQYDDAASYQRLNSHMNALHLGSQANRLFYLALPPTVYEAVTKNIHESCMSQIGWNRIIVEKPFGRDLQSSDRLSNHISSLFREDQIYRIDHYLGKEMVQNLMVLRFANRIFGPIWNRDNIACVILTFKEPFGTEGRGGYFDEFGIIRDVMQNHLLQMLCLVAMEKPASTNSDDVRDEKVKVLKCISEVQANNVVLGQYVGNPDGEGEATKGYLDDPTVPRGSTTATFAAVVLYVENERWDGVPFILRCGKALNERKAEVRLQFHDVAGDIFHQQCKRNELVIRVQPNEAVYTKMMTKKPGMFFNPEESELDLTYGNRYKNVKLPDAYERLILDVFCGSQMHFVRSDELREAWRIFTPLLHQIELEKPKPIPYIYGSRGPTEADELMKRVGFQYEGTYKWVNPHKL

[16] = Shn3 3'UTR reporter inhibitors, dose response, cell-based, Clone20 osteoblasts, firefly luciferase, cherry-picked (AID 624132); assay type: functional;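 note: firefly luciferase luminescence from reporter carrying the Shn3 3'UTR in osteoblasts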
[17] = control 3'UTR Renilla luciferase suppression, dose response, counter-screen for Shn3 inhibitor project, cell-based, Clone20-Shn3RL, cherry-picked (AID 624133); assay type: functional
[18] = HCT116 cell viability decrease, GSK3B pretreatment – CellTiter-Glo, IC50, dose response (AID 1117339); assay type: functional; conditions: HCT-116
[19] = HepG2 cell cytotoxicity, dose response, cytotoxicity control for Shn3 inhibitor project, CellTiter-Glo, cherry-picked (AID 624134); assay type: functional, cell-based
[20] = CellTiter-Glo luminescent dose response of DLD-1 viability loss (AID 1117352); assay type: functional
[21] = HeLa 2N DNA content increase, dose response, cell-based, IC50 (AID 1117349); assay type: functional
[22] = cytotoxicity toward Colo320 cells – cell-based, CellTiter-Glo luminescence, IC50, dose response (AID 1117334); assay type: functional; conditions: COLO 320
[23] = target: Sphingosine 1-phosphate receptor 2 (Homo sapiens, UniProt O95136); test: Dose Response Cell Based Assay for Antagonists of the S1P2 Receptor. [Related pubchem assays: 856, 736 ]; assay type: functional
Sphingosine 1-phosphate receptor 2, sequence (O95136 whole entry): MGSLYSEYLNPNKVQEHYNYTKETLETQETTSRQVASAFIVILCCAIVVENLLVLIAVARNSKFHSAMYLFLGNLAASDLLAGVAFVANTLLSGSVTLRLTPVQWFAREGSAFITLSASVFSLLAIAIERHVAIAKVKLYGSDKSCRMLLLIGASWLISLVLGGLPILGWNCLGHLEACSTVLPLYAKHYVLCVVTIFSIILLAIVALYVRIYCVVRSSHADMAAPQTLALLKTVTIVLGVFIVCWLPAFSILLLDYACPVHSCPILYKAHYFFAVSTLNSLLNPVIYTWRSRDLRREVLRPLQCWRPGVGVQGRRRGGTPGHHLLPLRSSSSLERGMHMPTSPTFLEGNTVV

[24] = target: Peroxisome proliferator-activated receptor gamma/Nuclear receptor coactivator 1 (Homo sapiens, UniProt P37231); test: (§1) TR-FRET dose response biochemical High Throughput Screening assay for agonists of the steroid receptor coactivator 1 (SRC-1) recruitment by the peroxisome proliferator-activated receptor gamma (PPAR gamma): non-selective agonists. [Related pubchem assays (depositor defined):AID1300, AID1808, AID504735, AID631]; assay type: protein assay
Peroxisome proliferator-activated receptor gamma/Nuclear receptor coactivator 1, sequence (P37231 whole entry): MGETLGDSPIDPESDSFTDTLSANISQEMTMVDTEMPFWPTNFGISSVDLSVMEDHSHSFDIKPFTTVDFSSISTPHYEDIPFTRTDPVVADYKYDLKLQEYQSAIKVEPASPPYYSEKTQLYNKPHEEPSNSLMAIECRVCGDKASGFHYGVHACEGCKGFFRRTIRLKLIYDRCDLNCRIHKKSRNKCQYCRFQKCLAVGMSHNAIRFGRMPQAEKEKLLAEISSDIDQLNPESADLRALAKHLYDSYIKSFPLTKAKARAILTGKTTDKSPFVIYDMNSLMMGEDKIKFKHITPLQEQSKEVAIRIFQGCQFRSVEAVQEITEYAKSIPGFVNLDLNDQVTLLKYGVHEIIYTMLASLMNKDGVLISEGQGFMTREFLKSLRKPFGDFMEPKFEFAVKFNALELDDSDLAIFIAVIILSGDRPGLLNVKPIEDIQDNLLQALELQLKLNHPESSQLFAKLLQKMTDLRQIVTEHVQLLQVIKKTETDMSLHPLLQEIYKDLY
Peroxisome proliferator-activated receptor gamma/Nuclear receptor coactivator 1, sequence (Q15788 whole entry, further chain): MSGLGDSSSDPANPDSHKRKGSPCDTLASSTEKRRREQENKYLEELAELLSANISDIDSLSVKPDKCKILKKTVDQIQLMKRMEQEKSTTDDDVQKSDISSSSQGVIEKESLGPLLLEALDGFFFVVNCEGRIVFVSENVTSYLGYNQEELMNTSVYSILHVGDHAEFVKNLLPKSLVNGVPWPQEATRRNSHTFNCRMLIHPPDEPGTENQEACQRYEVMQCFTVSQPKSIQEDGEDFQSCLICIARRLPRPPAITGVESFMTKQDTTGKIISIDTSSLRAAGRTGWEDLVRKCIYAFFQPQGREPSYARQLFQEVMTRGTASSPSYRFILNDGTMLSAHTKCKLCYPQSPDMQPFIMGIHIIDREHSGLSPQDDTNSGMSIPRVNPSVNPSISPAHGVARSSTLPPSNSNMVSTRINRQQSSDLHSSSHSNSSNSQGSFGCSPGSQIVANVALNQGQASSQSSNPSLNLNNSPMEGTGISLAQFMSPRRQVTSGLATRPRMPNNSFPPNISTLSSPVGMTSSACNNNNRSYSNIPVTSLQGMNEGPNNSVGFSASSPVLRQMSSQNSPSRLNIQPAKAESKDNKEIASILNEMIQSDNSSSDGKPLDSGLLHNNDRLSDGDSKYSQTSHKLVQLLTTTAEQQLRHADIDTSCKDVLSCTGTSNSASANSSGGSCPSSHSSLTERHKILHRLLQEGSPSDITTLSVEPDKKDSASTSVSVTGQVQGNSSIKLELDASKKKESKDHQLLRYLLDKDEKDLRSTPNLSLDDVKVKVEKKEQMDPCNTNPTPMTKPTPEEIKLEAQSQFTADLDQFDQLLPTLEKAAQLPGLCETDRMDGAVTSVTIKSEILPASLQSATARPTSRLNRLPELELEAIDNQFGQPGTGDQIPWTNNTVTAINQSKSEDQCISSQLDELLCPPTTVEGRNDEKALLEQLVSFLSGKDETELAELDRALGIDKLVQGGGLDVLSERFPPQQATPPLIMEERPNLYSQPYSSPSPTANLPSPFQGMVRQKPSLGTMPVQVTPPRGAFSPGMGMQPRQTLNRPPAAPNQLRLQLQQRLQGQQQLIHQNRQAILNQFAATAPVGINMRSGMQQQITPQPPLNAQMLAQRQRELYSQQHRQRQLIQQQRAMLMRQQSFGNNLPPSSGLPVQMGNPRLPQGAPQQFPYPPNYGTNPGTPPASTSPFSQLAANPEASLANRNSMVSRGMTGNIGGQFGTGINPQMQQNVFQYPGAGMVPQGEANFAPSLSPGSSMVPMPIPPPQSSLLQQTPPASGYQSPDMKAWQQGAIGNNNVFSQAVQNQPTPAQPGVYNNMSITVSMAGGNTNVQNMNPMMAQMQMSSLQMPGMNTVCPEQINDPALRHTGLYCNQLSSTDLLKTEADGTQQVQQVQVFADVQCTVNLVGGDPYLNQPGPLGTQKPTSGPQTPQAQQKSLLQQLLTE

[25] = target: Peroxisome proliferator-activated receptor gamma/Nuclear receptor coactivator 3 (Homo sapiens, UniProt P37231); test: as §1, with “3 (SRC-3)” for “1 (SRC-1)”, “assays: 1301 (Confirmation screen.), 1048 (Primary screen.)]” for “assays (depositor defined):AID1300, AID1808, AID504735, AID631]”; assay type: functional
[26] = target: Photoreceptor-specific nuclear receptor (Homo sapiens, UniProt Q9Y5X4); test: NR2E3 inverse agonists, dose response, biochemical, TR-FRET (AID 463256); assay type: functional
[27] = target: Peroxisome proliferator-activated receptor gamma/Nuclear receptor coactivator 2 (Homo sapiens, UniProt P37231); test: TR-FRET dose response biochemical High Throughput Screening assay for agonists of the steroid receptor coactivator 2 (SRC-2) recruitment by the peroxisome proliferator-activated receptor gamma (PPAR gamma): non-selective agonists. [Related pubchem assays: 1297, 1032 ]; assay type: functional
[28] = target: Peroxisome proliferator-activated receptor gamma/Nuclear receptor corepressor 2 (Homo sapiens, UniProt P37231+Q9Y618); test: Counterscreen for NR2E3 inverse agonists: TR-FRET-based biochemical high throughput dose response assay to identify inverse agonists of the interaction between peroxisome proliferator-activated receptor gamma (PPARg) and nuclear receptor co-repressor 2 (NCOR2).; assay type: functional
cells = assay type: functional, cell-based; conditions: INS-1E
[29] = Dose-response inhibition of insulin secretion in a rat insulinoma line at 5 mM glucose (AID 1117331); assay type: functional, cell-based; conditions: INS-1E
[30] = target: T1, Aryl hydrocarbon receptor (Homo sapiens, UniProt P35869); test: Luminescence-based cell-based high throughput dose response assay for activators of the Aryl Hydrocarbon Receptor (AHR). [Related pubchem assays: 2796 (Primary screen (AHR activators in singlicate)), 2845 (Confirmation screen (AHR activators in triplicate)), 434939 (Counterscreen (PXR activators in triplicate)), 2804 (Summary (AHR activators))]; assay type: ADME
T1 sequence (P35869 whole entry): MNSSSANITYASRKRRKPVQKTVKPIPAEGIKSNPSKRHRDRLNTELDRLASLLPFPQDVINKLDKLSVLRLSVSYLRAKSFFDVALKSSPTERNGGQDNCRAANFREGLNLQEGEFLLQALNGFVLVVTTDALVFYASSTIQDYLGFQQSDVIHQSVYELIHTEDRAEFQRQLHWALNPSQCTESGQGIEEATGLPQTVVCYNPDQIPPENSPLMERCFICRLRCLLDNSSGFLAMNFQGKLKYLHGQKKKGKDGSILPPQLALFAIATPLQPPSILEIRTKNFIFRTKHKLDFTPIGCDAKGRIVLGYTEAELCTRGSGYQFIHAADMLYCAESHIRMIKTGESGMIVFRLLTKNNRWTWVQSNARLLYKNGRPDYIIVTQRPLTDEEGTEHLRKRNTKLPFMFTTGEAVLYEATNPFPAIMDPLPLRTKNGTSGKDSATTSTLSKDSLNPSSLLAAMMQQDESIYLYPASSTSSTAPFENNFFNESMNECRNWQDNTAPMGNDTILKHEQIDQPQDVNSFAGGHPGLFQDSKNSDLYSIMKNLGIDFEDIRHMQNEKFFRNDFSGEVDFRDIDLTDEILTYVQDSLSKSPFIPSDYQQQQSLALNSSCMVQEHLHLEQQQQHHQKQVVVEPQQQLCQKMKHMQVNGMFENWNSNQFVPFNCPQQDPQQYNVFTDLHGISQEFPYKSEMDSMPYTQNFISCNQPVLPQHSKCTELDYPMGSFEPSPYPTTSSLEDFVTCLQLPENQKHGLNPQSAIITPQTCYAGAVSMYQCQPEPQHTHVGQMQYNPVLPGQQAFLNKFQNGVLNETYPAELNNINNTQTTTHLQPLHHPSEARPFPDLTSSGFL

[31] = target: Voltage-gated inwardly rectifying potassium channel KCNH2 (Homo sapiens, UniProt Q12809); test: hERG protection from proarrhythmic block, potency, dose response, cell-based, thallium flux (AID 2121); assay type: ADME
Voltage-gated inwardly rectifying potassium channel KCNH2, sequence (Q12809 whole entry): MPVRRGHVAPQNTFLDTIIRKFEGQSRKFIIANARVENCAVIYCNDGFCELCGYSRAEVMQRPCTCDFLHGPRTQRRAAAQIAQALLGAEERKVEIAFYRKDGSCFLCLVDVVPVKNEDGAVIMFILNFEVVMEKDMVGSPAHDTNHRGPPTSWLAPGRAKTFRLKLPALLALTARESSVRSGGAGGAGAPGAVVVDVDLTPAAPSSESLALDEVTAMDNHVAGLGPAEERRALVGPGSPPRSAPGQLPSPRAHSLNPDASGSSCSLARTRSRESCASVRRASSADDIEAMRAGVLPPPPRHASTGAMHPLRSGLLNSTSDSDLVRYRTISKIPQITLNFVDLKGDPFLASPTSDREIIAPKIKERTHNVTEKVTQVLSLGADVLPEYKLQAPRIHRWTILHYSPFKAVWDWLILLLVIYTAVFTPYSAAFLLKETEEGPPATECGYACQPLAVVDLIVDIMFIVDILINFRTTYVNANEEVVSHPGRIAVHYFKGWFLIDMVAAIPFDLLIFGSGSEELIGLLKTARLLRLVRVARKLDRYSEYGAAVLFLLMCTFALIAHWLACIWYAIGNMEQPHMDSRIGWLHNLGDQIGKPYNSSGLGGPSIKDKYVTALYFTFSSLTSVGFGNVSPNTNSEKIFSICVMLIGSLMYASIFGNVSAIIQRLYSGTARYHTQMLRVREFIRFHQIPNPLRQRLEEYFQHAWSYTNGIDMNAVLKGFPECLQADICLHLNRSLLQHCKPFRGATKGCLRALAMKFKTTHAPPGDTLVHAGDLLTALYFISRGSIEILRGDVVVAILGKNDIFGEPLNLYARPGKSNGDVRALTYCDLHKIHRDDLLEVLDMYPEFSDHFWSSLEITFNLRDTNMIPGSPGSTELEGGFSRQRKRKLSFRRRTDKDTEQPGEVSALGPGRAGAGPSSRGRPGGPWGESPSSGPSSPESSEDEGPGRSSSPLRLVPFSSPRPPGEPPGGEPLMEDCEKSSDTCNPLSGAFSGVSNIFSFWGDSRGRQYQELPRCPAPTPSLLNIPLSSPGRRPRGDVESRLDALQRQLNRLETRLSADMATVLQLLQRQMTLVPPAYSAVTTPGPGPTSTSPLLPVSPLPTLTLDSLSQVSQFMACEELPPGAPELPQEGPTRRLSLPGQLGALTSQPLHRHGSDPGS

CN1c2ccc(-c3cccc(F)c3)cc2[C@H]2[C@H](CCN2C(=O)Nc2ccccc2F)[C@H]1CO
AC50 [1]: > 47 µM (inactive)

N#Cc1c(N)nc2c(c1-c1cccc(O)c1)CCCCCC2
EC50 [2]: 13.8 µM (not active)
AC50 [3]: 5.01 µM (active)

C[C@H](CO)N1C[C@H](C)[C@@H](CN(C)Cc2ccc(C(F)(F)F)cc2)OCCCC[C@H](C)Oc2ccc(NS(=O)(=O)c3ccc(F)cc3)cc2C1=O
AC50 [4]: 18.8 µM (active)
AC50 [5]: 55.1 µM (active)
AC50 [6]: 68.3 µM (active)
AC50 [7]: 40.5 µM (active)
AC50 (Paired box protein Pax-8): 6.28 µM (active)
AC50 [8]: 24.3 µM (active)
AC50 [9]: 37.7 µM (active)

CSc1nc2c(cnn2-c2ccc(C)c(C)c2)c(=O)[nH]1
IC50 [10]: > 50 µM (not active)

O=C(NC1=NCCS1)c1cn(-c2ccccc2)nc1-c1cccnc1
IC50 [11]: > 74.4 µM (inactive)

COc1cccc(C(=O)NCCS(=O)(=O)NC(C)CCc2ccccc2)c1 (stereo not drawn)
IC50 [12]: > 96.6 µM (inactive)

O=C(Nc1ccc([N+](=O)[O-])cc1Cl)c1cc(Cl)ccc1O [NICLOSAMIDE]
IC50 [13]: > 10 µM (inactive)
IC50 [14]: 0.00144 µM (active)
IC50 [15]: > 80 µM (inactive)
AC50 [16]: 3 µM (active)
AC50 [17]: 0.837 µM (active)
IC50 [18]: 0.00295 µM (active)
AC50 [19]: 1.62 µM (active)
IC50 [20]: 0.00349 µM (active)
IC50 [21]: > 10 µM (inactive)
IC50 [22]: 0.00826 µM (active)

O=C(O)c1sc2cc(C(F)(F)F)cnc2c1-c1cccs1
IC50 [23]: > 30 µM (not active)

Cc1cc2nc(-c3ccc(SCC(=O)Nc4ccc(S(=O)(=O)N5CCCC5)cc4)nc3)[nH]c2cc1C
EC50 [24]: 11.6 µM (inactive)
EC50 [25]: > 79.4 µM (not active)
IC50 [26]: > 39.8 µM (not active)
EC50 [27]: 11.1 µM (not active)
IC50 [28]: 2.07 µM (active)

C#CCOC(C(=O)OCCN(C)C)(c1ccccc1)c1ccccc1
IC50 (cells): 9.67 µM (inactive)
IC50 [29]: 9.26 µM (inactive)

O=C(Nc1cccc(Cl)c1)c1cccnn1
EC50 [30]: 0.583 µM (active)

COc1ccc(C(=O)CC(=O)C(=O)Nc2ccccc2OC)cc1
EC50 [31]: 8.33 µM (active)
